Results on two compounds are retold here after patent US20260176266A1, “PIPERIDINOPYRIMIDINE DERIVATIVE, PREPARATION METHOD THEREFOR AND USE THEREOF IN MEDICINE” (TUOJIE BIOTECH (SHANGHAI) CO., LTD., priority 2022, published 2026).

A value given as a limit tells only on which side of the number the result lay.

One experiment deals with MCF7 breast cancer cells. As to the kind of experiment: Inhibitory activity against tumor cells, CellTiter-Glo: MCF7. The format is cell-based. The conditions noted are these: Homo sapiens, 168 h, MCF7, 7 days treatment. As to the method:
(§1) MCF7 (ATCC #HTB-22) and T47D (ATCC #HTB-133) breast cancer cells and PANC-1 (ATCC #CRL-1469) pancreatic cancer cells were purchased from ATCC. MDA-MB-231 (Cobioer #CBP60382), HCC1806 (Cobioer #CBP60373), and MDA-MB-468 (Cobioer #CBP60387) breast cancer cells, HCT-116 (Cobioer #CBP60028) colorectal cancer cells, and OCI-AML-3 (Cobioer #CBP60817) and MV-4-11 (Cobioer #CBP60522) leukemia cells were purchased from Nanjing Cobioer Biosciences Co., Ltd.
(§2) OCI-AML-3 was cultured in RPMI 1640 medium with 20% FBS; HCC1806 and T47D were cultured in RPMI 1640 medium with 10% FBS; MCF7, MDA-MB-231, MDA-MB-468, and PANC-1 were cultured in DMEM medium with 10% FBS; MV-4-11 was cultured in IMDM medium with 20% FBS; HCT-116 was cultured in MC′5A medium with 10% FBS.
(§3) Palbociclib-resistant cells were constructed on MCF7 parent cells, designated MCF7 Palbo-R, and the culture conditions were consistent with those of the parent cells. All tumor cells were cultured in a cell incubator at 37° C. with 5% CO2. The cells were seeded at corresponding cell densities (600 cells/well for MDA-MB-231; 500 cells/well for MDA-MB-468, PANC-1, and HCT-116; 200 cells/well for MCF7 and HCC1806; 800 cells/well for MCF7 Palbo-R; 3000 cells/well for OCI-AML-3 and MV-4-11) in 384-well plates and cultured overnight in the incubator. On the second day, the cells were treated with compounds. The maximum compound concentration was 10 μM and was 3-fold diluted to obtain 9 concentrations, each tested in duplicate, and the final concentration of DMSO was 0.1%. The cells continued to be cultured in the incubator, with MDA-MB-231, PANC-1, MDA-MB-468, OCI-AML-3, and MV-4-11 being treated with drugs for 5 days and HCC1806, MCF7, MCF7 Palbo-R, and HCT116 being treated with drugs for 7 days. Cell viability was tested using the Celltiter Glo assay kit (Promega), and the testing method was consistent with the operational method provided by the kit. Readings were taken using an Envision multimode microplate reader. Data were processed using GraphPad Prism 8, and IC50 was calculated. […]
For orientation: In ATP-based viability assays light output follows the ATP content of the culture.

Another experiment relates to T47D breast cancer cells. Description: Inhibitory activity against tumor cells, CellTiter-Glo: T47D. Format: cell-based. Conditions: Homo sapiens. As to the method: as §1, §2
(§4) Palbociclib-resistant cells were constructed on MCF7 parent cells, designated MCF7 Palbo-R, and the culture conditions were consistent with those of the parent cells. All tumor cells were cultured in a cell incubator at 37° C. with 5% CO2. The cells were seeded at corresponding cell densities (600 cells/well for MDA-MB-231; 500 cells/well for MDA-MB-468, PANC-1, and HCT-116; 200 cells/well for MCF7 and HCC1806; 800 cells/well for MCF7 Palbo-R; 3000 cells/well for OCI-AML-3 and MV-4-11) in 384-well plates and cultured overnight in the incubator. On the second day, the cells were treated with compounds. The maximum compound concentration was 10 μM and was 3-fold diluted to obtain 9 concentrations, each tested in duplicate, and the final concentration of DMSO was 0.1%. The cells continued to be cultured in the incubator, with MDA-MB-231, PANC-1, MDA-MB-468, OCI-AML-3, and MV-4-11 being treated with drugs for 5 days and HCC1806, MCF7, MCF7 Palbo-R, and HCT116 being treated with drugs for 7 days. Cell viability was tested using the Celltiter Glo assay kit (Promega), and the testing method was consistent with the operational method provided by the kit. Readings were taken using an Envision multimode microplate reader. Data were processed using GraphPad Prism 8, and IC50 was calculated.
(§5) Y=Bottom+(Top−Bottom)/(1+10^((Log IC50−X)×HillSlope)). Calculation formula: • X: the logarithm of the compound concentration; Y: % inhibition.

The test system of experiment [1] is MDA-MB-231 breast cancer cells. Description: Inhibitory activity against tumor cells, CellTiter-Glo: MDA-MB-231. The conditions noted are these: Homo sapiens, 120 h, MDA-MB-231, 5 days treatment. Format: cell-based. The protocol:
as §1, §2, §3

The subject of experiment [2] is HCC1806 breast cancer cells. As to the kind of experiment: Inhibitory activity against tumor cells, CellTiter-Glo: HCC1806. Format: cell-based. Conditions: Homo sapiens, 168 h, HCC1806, 7 days treatment. As to the method: as §1, §2, §3
In experiment [3] the test system is MDA-MB-468 breast cancer cells. Description: Inhibitory activity against tumor cells, CellTiter-Glo: MDA-MB-468. Format: cell-based. Conditions: Homo sapiens, 120 h, MDA-MB-468, 5 days treatment. The protocol:
as §1, §2, §3

Experiment [4] has as its system HCT-116 colorectal cancer cells. As to the kind of experiment: Inhibitory activity against tumor cells, CellTiter-Glo: HCT-116. The format is cell-based. Conditions: Homo sapiens, 168 h, HCT-116, 7 days treatment. As to the method: as §1, §2, §4, §5
For the next experiment, the target named is CDK6/CyclinD3 (Homo sapiens, UniProt Q00534). Description: ADP-Glo kinase assay, CDK6. The format is biochemical. The conditions noted are these: 15.7 nM CDK6/CyclinD3, 200 μM ATP (Km), Histone H1, 60 min; read-out: inhibitory activity (IC50, nM) CDK 6. As to the method: (§6) The ADP-Glo kinase assay was used for testing the activity of CDKs. The compounds were diluted in 384-well plates using Echo. The starting concentration was 10 μM and was 3-fold diluted to obtain 10 concentration points, each tested in duplicate, and the final concentration of DMSO in the assay system was 1%. CDK solutions (the final concentrations were 16.5 nM CDK1/CyclinB, 1 nM CDK2/CyclinE1, 16.3 nM CDK4/CyclinD1, 11.5 nM CDK5/p25, 15.7 nM CDK6/CyclinD3, 80 nM CDK7/Cyclin H/MAT1, 15.3 nM CDK9/Cyclin T1, and 150 nM CDK12/CyclinK) prepared in assay buffer were added at 2.5 μL, and the enzymes and compounds were pre-incubated at room temperature for 10 min. ATP (the concentration was Km) & substrate solutions (20 μM ATP & 0.1 mg/mL Histone H1 Protein for CDK1/CyclinB, 15 μM ATP & 0.1 mg/mL Histone H1 Protein for CDK2/CyclinE1, 200 μM ATP & 0.2 mg/mL DYRKtide peptide for CDK4/CyclinD1, 10 μM ATP & 0.1 mg/mL Histone H1 Protein for CDK5/p25, 200 μM ATP & 0.1 mg/mL Histone H1 Protein for CDK6/CyclinD3, 70 μM ATP & 0.2 mg/mL MBP for CDK7/Cyclin H/MAT1, 60 μM ATP & 0.2 mg/mL PDKtide for CDK9/Cyclin T1, and 20 μM ATP & 80 μM pS7-CTD peptide for CDK12/CyclinK) prepared in assay buffer were added at 2.5 μL. […] Readings were taken using an Envision multimode microplate reader. Data were processed using GraphPad Prism 8, and IC50 was calculated. […]
For orientation: ADP-Glo turns the ADP formed in a reaction into a luminescent signal.

The target in the next experiment is CDK5/p25 (Homo sapiens, UniProt Q00535). Description: ADP-Glo kinase assay, CDK5. The format is biochemical. Conditions: 11.5 nM CDK5/p25, 10 μM ATP (Km), Histone H1, 60 min; read-out: inhibitory activity (IC50, nM) CDK5. As to the method:
as §6

The next experiment has as its target CDK9/Cyclin T1 (Homo sapiens, UniProt P50750). Description: ADP-Glo kinase assay, CDK9. Format: biochemical. The conditions noted are these: 15.3 nM CDK9/Cyclin T1, 60 μM ATP (Km), PDKtide, 120 min; read-out: inhibitory activity (IC50, nM) CDK9. The protocol: as §6

CDK5/p25, sequence (Q00535 whole entry, species assumed): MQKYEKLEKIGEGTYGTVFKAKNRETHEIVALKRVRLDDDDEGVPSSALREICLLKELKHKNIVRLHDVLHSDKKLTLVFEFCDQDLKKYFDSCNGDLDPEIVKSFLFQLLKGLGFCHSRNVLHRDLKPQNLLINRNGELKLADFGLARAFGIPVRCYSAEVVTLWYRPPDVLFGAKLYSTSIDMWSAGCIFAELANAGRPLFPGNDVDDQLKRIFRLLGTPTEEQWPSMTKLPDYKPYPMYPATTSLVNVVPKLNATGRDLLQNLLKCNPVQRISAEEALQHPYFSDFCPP
CDK5/p25, sequence (Q15078 99-307 partner limits assumed, species assumed): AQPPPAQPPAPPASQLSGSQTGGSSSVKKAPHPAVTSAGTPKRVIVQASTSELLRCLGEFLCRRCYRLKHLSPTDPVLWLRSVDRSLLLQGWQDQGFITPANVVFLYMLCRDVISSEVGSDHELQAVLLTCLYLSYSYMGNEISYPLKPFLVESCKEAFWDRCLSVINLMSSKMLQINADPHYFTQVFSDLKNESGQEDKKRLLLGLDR
CDK9/Cyclin T1, sequence (P50750 whole entry, species assumed): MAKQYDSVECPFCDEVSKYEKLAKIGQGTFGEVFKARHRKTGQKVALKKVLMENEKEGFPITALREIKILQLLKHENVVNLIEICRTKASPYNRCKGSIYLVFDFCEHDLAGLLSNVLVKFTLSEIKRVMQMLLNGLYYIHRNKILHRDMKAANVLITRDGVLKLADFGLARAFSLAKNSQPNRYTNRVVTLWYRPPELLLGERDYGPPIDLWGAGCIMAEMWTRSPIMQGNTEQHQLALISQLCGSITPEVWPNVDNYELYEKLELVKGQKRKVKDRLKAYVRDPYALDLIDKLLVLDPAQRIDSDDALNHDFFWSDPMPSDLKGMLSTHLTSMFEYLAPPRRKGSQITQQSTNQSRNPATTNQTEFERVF
CDK9/Cyclin T1, sequence (O60563 whole entry partner, species assumed): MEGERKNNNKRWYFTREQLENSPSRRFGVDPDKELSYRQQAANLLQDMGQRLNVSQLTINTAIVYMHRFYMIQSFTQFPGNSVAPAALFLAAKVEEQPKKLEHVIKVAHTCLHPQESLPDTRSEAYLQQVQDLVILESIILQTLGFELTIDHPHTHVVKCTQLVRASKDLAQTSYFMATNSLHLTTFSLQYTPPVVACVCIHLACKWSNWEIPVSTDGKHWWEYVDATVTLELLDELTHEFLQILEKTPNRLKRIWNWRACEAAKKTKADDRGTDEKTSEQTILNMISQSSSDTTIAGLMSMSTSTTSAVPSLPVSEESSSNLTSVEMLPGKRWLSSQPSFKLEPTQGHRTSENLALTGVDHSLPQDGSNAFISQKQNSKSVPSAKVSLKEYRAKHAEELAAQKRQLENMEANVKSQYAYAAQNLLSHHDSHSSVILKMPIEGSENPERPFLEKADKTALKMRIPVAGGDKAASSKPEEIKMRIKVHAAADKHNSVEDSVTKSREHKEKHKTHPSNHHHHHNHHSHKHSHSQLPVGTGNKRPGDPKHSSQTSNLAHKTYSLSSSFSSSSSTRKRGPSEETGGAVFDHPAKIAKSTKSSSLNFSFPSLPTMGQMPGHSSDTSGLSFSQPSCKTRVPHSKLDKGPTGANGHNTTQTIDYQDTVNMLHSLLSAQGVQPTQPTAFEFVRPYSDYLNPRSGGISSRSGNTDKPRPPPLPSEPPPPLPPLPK
CDK6/CyclinD3, sequence (Q00534 whole entry, species assumed): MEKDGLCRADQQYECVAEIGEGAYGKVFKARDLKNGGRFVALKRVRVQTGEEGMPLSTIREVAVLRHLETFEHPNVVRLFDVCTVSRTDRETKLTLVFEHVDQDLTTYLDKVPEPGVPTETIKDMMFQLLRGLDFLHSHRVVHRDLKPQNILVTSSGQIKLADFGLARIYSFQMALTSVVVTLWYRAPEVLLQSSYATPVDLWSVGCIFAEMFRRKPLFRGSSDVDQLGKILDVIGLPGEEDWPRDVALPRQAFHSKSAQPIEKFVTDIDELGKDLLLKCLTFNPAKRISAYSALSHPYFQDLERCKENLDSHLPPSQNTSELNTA
CDK6/CyclinD3, sequence (P30281 whole entry partner, species assumed): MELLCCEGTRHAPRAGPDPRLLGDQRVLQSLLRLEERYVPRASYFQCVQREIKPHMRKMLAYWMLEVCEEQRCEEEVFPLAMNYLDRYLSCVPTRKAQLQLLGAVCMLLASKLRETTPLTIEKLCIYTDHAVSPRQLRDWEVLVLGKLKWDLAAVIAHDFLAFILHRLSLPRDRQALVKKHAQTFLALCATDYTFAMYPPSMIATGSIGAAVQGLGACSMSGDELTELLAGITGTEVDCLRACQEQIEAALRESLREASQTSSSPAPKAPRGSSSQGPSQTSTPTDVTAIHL

Broadly, the IC50 is the concentration that gives 50% inhibition. In the case of `C[C@H](Nc1ncc2c(n1)CN(C(=O)N[C@H](CN(C)C)c1ccccc1)[C@H](C)C2)c1ccccn1` [Example 6, (R)—N—((S)-2-(Dimethylamino)-1-phenylethyl)-6-methyl-2-(((S)-1-(pyridin-2-yl)ethyl)amino)-5,8-dihydropyrido[3,4-d]pyrimidine-7(6H)-carboxamide], the IC50 in the experiment on MCF7 breast cancer cells was 11.8 nM; in the experiment with T47D breast cancer cells, 22.2 nM; in experiment [1], 23.2 nM; in experiment [2] it was 23.7 nM; in experiment [3] it was 21.2 nM; in experiment [4] it was 46.9 nM. The IC50 on CDK6/CyclinD3 is more than 10000 nM; on CDK5/p25 it was 6420 nM; at CDK9/Cyclin T1, 4270 nM.
For the compound `C[C@@H]1Cc2cnc(NCc3ccn(C)n3)nc2CN1C(=O)N[C@H](CN(C)C)c1ccccc1` [Example 2, (R)—N—((S)-2-(Dimethylamino)-1-phenylethyl)-6-methyl-2-(((1-methyl-TH-pyrazol-3-yl)methyl)amino)-5,8-dihydropyrido[3,4-d]pyrimidine-7(6H)-carboxamide], the IC50 in the experiment on MCF7 breast cancer cells worked out at 14.6 nM; with T47D breast cancer cells, 31 nM; in experiment [1], 25.4 nM; in experiment [2] it was 28.6 nM; in [3], 30 nM; in experiment [4], 75.6 nM. Also, the IC50 at CDK6/CyclinD3 is more than 10000 nM; on CDK5/p25, 6310 nM; on CDK9/Cyclin T1, 1580 nM.
